Laboratory results: patent US20230074252A1, “DOSAGES AND METHODS FOR TREATING PULMONARY ARTERIAL HYPERTENSION WITH RODATRISTAT” (Altavant Sciences GmbH, priority 2020, published 2023)
Entries after “also recorded” stand apart in the source; their conditions may differ.

Legend:
Assay type in all cases: in vitro ADME
[1] = target: MRP2 (Homo sapiens, UniProt Q92887); assay: In vitro transporter substrate assessment
Text: (§1) Consequently, the elimination of rodatristat into bile may be impacted by co-administration with agents that are BCRP inhibitors.

[2] = target: T1, P-gp (Homo sapiens, UniProt P08183); assay: In vitro transporter substrate assessment
T1 construct: endogenous in cells; host or cells: Caco-2
T1 sequence (P08183 whole entry): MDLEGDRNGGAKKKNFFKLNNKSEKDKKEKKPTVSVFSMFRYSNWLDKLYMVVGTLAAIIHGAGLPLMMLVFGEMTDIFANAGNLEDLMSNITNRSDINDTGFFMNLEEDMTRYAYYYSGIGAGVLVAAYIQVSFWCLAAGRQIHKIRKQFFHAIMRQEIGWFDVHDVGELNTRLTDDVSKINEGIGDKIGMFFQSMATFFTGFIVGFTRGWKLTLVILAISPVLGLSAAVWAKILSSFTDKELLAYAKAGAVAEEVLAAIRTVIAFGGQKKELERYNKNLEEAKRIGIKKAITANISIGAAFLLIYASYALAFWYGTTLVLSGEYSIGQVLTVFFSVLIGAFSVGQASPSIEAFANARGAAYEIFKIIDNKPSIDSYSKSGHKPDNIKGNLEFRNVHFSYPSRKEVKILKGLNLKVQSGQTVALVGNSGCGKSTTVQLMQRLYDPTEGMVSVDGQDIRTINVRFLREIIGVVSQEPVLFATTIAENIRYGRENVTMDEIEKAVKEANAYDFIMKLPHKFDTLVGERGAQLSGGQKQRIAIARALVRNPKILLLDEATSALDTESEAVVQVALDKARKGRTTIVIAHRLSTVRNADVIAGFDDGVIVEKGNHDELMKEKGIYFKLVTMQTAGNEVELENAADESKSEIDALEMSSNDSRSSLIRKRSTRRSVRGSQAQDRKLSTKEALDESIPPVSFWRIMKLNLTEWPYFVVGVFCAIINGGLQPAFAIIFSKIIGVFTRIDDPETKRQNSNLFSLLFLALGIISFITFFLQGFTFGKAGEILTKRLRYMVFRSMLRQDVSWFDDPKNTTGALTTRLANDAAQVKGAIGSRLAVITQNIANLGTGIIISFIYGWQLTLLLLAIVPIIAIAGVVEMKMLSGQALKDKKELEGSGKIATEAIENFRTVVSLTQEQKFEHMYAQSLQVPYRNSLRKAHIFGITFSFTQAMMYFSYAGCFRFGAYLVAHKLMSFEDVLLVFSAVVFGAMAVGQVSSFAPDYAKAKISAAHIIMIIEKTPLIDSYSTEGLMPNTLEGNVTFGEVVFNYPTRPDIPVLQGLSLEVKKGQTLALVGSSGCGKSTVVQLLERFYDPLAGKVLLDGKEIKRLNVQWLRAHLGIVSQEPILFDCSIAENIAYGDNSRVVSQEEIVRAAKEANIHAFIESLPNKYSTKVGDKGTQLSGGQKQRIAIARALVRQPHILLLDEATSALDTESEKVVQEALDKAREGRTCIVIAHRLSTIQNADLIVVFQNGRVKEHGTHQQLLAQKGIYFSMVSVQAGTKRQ
Text: as §1

[3] = target: T2, CYP1A2 (Homo sapiens, UniProt P05177); assay: In vitro CYP substrate assessment (victim potential)
T2 sequence (P05177 1-516): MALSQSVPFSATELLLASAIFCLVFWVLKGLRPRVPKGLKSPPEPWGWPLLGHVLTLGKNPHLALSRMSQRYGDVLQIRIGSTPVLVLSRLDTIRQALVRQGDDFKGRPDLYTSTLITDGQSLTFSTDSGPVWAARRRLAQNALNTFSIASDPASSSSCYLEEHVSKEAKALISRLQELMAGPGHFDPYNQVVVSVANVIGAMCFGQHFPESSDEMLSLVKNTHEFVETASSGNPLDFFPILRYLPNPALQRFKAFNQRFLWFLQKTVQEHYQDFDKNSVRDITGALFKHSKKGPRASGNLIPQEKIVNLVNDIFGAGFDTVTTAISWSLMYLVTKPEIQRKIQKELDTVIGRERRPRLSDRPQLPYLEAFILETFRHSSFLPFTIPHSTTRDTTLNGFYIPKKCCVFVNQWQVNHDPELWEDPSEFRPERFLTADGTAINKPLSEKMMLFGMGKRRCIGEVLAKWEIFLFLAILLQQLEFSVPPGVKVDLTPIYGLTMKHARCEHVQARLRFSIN

[4] = target: T3, OATP1B3 (Homo sapiens, UniProt Q9NPD5); assay: Transporter inhibition, HEK293 cells, estradiol-17β-glucuronide probe; settings: for Calculated Values, R-value, OATP1B3 / Potential for interaction? (transporter inhibitor), OATP1B3: predicted @ 600 mg BID; for IC50: read-out: In vitro IC50, OATP1B3
T3 construct: expressed in transfected cells; host or cells: HEK293
T3 sequence (Q9NPD5 1-702): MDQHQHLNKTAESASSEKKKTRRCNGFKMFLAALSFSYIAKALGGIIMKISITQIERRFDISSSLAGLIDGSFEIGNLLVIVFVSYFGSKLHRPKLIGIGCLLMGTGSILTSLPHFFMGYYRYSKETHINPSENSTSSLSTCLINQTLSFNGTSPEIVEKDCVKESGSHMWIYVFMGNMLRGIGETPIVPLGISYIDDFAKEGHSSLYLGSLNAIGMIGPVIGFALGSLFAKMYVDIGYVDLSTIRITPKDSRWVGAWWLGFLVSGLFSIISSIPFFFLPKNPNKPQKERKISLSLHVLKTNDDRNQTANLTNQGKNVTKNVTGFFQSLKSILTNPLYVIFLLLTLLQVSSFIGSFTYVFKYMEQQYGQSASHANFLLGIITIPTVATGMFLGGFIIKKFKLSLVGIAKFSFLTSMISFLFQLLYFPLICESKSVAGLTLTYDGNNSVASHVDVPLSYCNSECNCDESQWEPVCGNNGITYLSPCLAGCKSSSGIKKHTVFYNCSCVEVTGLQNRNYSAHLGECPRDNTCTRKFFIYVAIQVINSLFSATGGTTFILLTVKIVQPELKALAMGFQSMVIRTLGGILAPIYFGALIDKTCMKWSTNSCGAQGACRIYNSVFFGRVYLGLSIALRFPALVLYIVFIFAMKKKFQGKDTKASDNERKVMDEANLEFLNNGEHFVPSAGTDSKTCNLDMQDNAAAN
Protocol: (§2) The competitive inhibition of specific transporters was investigated for RVT-1201 and KAR5417 in transporter-expressing in vitro systems (XT158039). Inhibition of P-gp was evaluated using a Caco-2 cell line with digoxin as probe substrate. Inhibition of OATP1B1 and OATP1B3 was evaluated using a HEK293 cell line expressing these transporters with estradiol-17β-glucuronide as probe substrate. In addition, inhibition of other transporters was also investigated (BCRP, OAT1, OAT3, OCT2, MATE1, MATE2-K). The IC50 estimates for P-gp (RVT-1201) and OATP1B1/3 (RVT-1201 and KAR5417) supported further evaluation of inhibition DDI potential using the PBPK model. For each IC50 estimate, substrate concentration and Km were used to estimate RVT-1201 and KAR5417 Ki with Equation 1 (Cheng and Prusoff, 1973).

[5] = target: T4, OATP1B1 (Homo sapiens, UniProt Q9Y6L6); assay: as above; settings: for Calculated Values, R-value, OATP1B1 / Potential for interaction? (transporter inhibitor), OATP1B1: predicted @ 600 mg BID; for IC50: read-out: In vitro IC50, OATP1B1
T4 construct: expressed in transfected cells; host or cells: HEK293
T4 sequence (Q9Y6L6 1-691): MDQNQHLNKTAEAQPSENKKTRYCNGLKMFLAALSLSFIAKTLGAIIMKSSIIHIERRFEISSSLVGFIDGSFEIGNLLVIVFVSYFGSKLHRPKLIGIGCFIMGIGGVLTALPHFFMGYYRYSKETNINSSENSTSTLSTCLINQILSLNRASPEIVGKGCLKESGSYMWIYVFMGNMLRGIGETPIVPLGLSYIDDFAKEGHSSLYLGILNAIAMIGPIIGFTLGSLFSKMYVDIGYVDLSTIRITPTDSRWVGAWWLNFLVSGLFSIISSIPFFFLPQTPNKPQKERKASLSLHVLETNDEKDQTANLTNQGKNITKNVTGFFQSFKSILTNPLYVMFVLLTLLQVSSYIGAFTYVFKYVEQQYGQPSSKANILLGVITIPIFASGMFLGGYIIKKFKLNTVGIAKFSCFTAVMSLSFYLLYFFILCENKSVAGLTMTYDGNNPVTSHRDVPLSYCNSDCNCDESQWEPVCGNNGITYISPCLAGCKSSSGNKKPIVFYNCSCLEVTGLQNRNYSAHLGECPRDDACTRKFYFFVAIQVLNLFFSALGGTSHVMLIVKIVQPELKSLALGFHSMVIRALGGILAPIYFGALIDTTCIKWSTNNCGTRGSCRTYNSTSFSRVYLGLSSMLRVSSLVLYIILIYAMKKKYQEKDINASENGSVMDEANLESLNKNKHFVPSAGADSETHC
Protocol: as §2

[6] = target: T4, OATP1B1; assay: In vitro transporter substrate assessment

MRP2, sequence (Q92887 whole entry): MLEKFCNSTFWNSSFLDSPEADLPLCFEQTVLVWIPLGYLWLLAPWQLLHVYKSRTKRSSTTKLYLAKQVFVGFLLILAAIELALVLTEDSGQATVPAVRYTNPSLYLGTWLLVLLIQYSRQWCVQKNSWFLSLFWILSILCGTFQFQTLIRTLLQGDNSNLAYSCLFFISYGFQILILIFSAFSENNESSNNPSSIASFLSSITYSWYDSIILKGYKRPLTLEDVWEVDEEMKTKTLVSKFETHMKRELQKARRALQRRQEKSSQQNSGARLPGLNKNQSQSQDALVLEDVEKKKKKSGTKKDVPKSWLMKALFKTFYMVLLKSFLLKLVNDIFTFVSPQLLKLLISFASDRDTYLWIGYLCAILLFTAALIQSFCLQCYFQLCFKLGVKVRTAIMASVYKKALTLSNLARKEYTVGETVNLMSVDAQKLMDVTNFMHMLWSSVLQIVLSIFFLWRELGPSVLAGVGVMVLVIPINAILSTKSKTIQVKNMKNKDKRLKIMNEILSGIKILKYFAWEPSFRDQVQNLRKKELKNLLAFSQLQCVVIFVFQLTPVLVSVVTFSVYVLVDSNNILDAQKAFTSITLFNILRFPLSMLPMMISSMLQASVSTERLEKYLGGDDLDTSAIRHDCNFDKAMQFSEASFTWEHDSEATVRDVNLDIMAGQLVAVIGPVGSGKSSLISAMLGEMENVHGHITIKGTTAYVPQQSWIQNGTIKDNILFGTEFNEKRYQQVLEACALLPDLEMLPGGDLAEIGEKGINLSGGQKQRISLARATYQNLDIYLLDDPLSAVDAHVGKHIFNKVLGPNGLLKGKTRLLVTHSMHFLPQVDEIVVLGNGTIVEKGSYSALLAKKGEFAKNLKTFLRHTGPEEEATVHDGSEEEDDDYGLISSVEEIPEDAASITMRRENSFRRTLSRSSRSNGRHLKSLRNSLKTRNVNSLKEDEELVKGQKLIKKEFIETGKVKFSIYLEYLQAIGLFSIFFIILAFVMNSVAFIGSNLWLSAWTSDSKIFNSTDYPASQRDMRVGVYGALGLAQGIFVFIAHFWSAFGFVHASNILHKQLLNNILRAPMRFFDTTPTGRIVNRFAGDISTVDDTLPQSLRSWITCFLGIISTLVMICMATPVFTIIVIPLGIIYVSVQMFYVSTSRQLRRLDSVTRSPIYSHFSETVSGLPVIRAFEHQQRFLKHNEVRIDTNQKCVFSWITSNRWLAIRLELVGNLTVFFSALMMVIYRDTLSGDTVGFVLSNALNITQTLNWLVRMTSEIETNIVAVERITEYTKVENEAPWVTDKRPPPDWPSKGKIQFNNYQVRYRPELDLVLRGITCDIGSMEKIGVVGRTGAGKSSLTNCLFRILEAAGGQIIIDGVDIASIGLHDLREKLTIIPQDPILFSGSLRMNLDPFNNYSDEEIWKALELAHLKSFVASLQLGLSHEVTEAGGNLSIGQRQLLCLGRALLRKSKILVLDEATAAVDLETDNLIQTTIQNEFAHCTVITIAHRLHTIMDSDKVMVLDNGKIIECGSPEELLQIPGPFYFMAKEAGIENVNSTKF

CCOC(=O)[C@@H]1CC2(CCN(c3cc(O[C@H](c4ccc(Cl)cc4-c4ccccc4)C(F)(F)F)nc(N)n3)CC2)CN1 [Rodatristat ethyl, (S)-ethyl 8-(2-amino-6-((R)-1-(5-chloro-[1,1′-biphenyl]-2-yl)-2,2,2-trifluoroethoxy)pyrimidin-4-yl)-2,8-diazaspiro[4.5]decane-3-carboxylate]
In vitro substrate? MRP2 [1]: not a substrate; also recorded: not likely | In vitro substrate? P-gp [2]: not a substrate; also recorded: not likely | In vitro substrate? CYP1A2 [3]: No | Calculated Values, R-value, OATP1B3 [4]: <1.1 | Potential for interaction? (transporter inhibitor), OATP1B3 [4]: No | Calculated Values, R-value, OATP1B3 ([4]; listed as rodatristat ethyl): < 1.1 | IC50 [4]: 12.3 µM | Calculated Values, R-value, OATP1B1 [5]: <1.1 | Potential for interaction? (transporter inhibitor), OATP1B1 [5]: No | IC50 [5]: 25.4 µM | In vitro substrate? OATP1B1 [6]: not a substrate and No

Nc1nc(O[C@H](c2ccc(Cl)cc2-c2ccccc2)C(F)(F)F)cc(N2CCC3(CC2)CN[C@H](C(=O)O)C3)n1 [Rodatristat, (S)-8-(2-amino-6-((R)-1-(5-chloro-[1,1′-biphenyl]-2-yl)-2,2,2-trifluoroeth-oxy)pyrimidin-4-yl)-2,8-diazaspiro[4.5]decane-3-carboxylic acid]
In vitro substrate? MRP2 [1]: not an in vitro substrate; also recorded: Not likely | In vitro substrate? P-gp [2]: potential substrate | In vitro substrate? CYP1A2 [3]: No | Calculated Values, R-value, OATP1B3 [4]: 1.26 | Potential for interaction? (transporter inhibitor), OATP1B3 [4]: Yes | IC50 [4]: 1.93 µM | Calculated Values, R-value, OATP1B1 [5]: <1.1 | Potential for interaction? (transporter inhibitor), OATP1B1 [5]: No | IC50 [5]: 5.74 µM | In vitro substrate? OATP1B1 [6]: is an in vitro substrate and Yes | Accumulation by OATP1B1 uptake transporter ([6]; 3 μM): 2.22 fold
